Laboratory results taken from the NIST ThermoML archive (doi:10.1021/je800251v).
± gives the expanded uncertainty stated by the source.

Settings: Liquid

CCCCC(=O)OCC [ethyl pentanoate]
Settings	mass density [kg/m3]
298.15 K, 100 kPa	870.7 ± 0.8
298.15 K, 1000 kPa	871.5 ± 0.9
298.15 K, 2000 kPa	872.4 ± 0.9
298.15 K, 2780 kPa	873 ± 0.9
298.15 K, 3000 kPa	873.2 ± 0.9
298.15 K, 5000 kPa	875.1 ± 1
298.15 K, 10000 kPa	879.4 ± 1.2
298.15 K, 15000 kPa	883.4 ± 1.3
298.15 K, 20000 kPa	887.3 ± 1.5
298.15 K, 25000 kPa	891 ± 1.6
298.15 K, 30000 kPa	894.6 ± 1.7
298.15 K, 35000 kPa	898.1 ± 1.8
303.15 K, 100 kPa	865.5 ± 0.8
303.15 K, 1000 kPa	866.4 ± 0.9
303.15 K, 2000 kPa	867.4 ± 0.9
303.15 K, 2780 kPa	868.1 ± 0.9
303.15 K, 3000 kPa	868.3 ± 0.9
303.15 K, 5000 kPa	870.1 ± 1
303.15 K, 10000 kPa	874.5 ± 1.2
303.15 K, 15000 kPa	878.7 ± 1.3
303.15 K, 20000 kPa	882.6 ± 1.5
303.15 K, 25000 kPa	886.5 ± 1.6
303.15 K, 30000 kPa	890.2 ± 1.8
303.15 K, 35000 kPa	893.8 ± 1.9
308.15 K, 100 kPa	860.3 ± 0.9
308.15 K, 1000 kPa	861.2 ± 0.9
308.15 K, 2000 kPa	862.1 ± 0.9
308.15 K, 2780 kPa	862.9 ± 1
308.15 K, 3000 kPa	863.1 ± 1
308.15 K, 5000 kPa	865 ± 1
308.15 K, 10000 kPa	869.5 ± 1.2
308.15 K, 15000 kPa	873.8 ± 1.4
308.15 K, 20000 kPa	877.8 ± 1.5
308.15 K, 25000 kPa	881.8 ± 1.7
308.15 K, 30000 kPa	885.6 ± 1.8
308.15 K, 35000 kPa	889.2 ± 1.9
313.15 K, 100 kPa	855 ± 0.9
313.15 K, 1000 kPa	855.9 ± 0.9
313.15 K, 2000 kPa	856.9 ± 0.9
313.15 K, 2780 kPa	857.7 ± 1
313.15 K, 3000 kPa	857.9 ± 1
313.15 K, 5000 kPa	859.9 ± 1.1
313.15 K, 10000 kPa	864.5 ± 1.2
313.15 K, 15000 kPa	868.9 ± 1.4
313.15 K, 20000 kPa	873 ± 1.6
313.15 K, 25000 kPa	877 ± 1.7
313.15 K, 30000 kPa	880.9 ± 1.9
313.15 K, 35000 kPa	884.6 ± 2
318.15 K, 100 kPa	849.8 ± 0.9
318.15 K, 1000 kPa	850.6 ± 0.9
318.15 K, 2000 kPa	851.7 ± 1
318.15 K, 2780 kPa	852.4 ± 1
318.15 K, 3000 kPa	852.7 ± 1
318.15 K, 5000 kPa	854.6 ± 1.1
318.15 K, 10000 kPa	859.4 ± 1.3
318.15 K, 15000 kPa	863.9 ± 1.5
318.15 K, 20000 kPa	868.2 ± 1.6
318.15 K, 25000 kPa	872.3 ± 1.8
318.15 K, 30000 kPa	876.3 ± 1.9
318.15 K, 35000 kPa	880.1 ± 2.1
323.15 K, 100 kPa	844.4 ± 0.9
323.15 K, 1000 kPa	845.3 ± 0.9
323.15 K, 2000 kPa	846.4 ± 1
323.15 K, 2780 kPa	847.2 ± 1
323.15 K, 3000 kPa	847.4 ± 1
323.15 K, 5000 kPa	849.4 ± 1.1
323.15 K, 10000 kPa	854.3 ± 1.3
323.15 K, 15000 kPa	859 ± 1.5
323.15 K, 20000 kPa	863.4 ± 1.7
323.15 K, 25000 kPa	867.6 ± 1.8
323.15 K, 30000 kPa	871.7 ± 2
323.15 K, 35000 kPa	875.5 ± 2.1
328.15 K, 100 kPa	839.1 ± 0.9
328.15 K, 1000 kPa	840 ± 1
328.15 K, 2000 kPa	841.1 ± 1
328.15 K, 2780 kPa	842 ± 1
328.15 K, 3000 kPa	842.3 ± 1
328.15 K, 5000 kPa	844.4 ± 1.1
328.15 K, 10000 kPa	849.4 ± 1.3
328.15 K, 15000 kPa	854.2 ± 1.5
328.15 K, 20000 kPa	858.7 ± 1.7
328.15 K, 25000 kPa	863 ± 1.9
328.15 K, 30000 kPa	867.1 ± 2
328.15 K, 35000 kPa	871.1 ± 2.2
333.15 K, 100 kPa	833.7 ± 0.9
333.15 K, 1000 kPa	834.7 ± 1
333.15 K, 2000 kPa	836 ± 1
333.15 K, 2780 kPa	836.9 ± 1
333.15 K, 3000 kPa	837.1 ± 1.1
333.15 K, 5000 kPa	839.3 ± 1.1
333.15 K, 10000 kPa	844.5 ± 1.4
333.15 K, 15000 kPa	849.5 ± 1.6
333.15 K, 20000 kPa	854.1 ± 1.7
333.15 K, 25000 kPa	858.6 ± 1.9
333.15 K, 30000 kPa	862.9 ± 2.1
333.15 K, 35000 kPa	867 ± 2.2
338.15 K, 100 kPa	828.4 ± 0.9
338.15 K, 1000 kPa	829.5 ± 1
338.15 K, 2000 kPa	830.7 ± 1
338.15 K, 2780 kPa	831.5 ± 1.1
338.15 K, 3000 kPa	831.8 ± 1.1
338.15 K, 5000 kPa	834 ± 1.2
338.15 K, 10000 kPa	839.4 ± 1.4
338.15 K, 15000 kPa	844.5 ± 1.6
338.15 K, 20000 kPa	849.3 ± 1.8
338.15 K, 25000 kPa	853.9 ± 2
338.15 K, 30000 kPa	858.2 ± 2.1
338.15 K, 35000 kPa	862.4 ± 2.3
343.15 K, 100 kPa	823 ± 1
343.15 K, 1000 kPa	824.1 ± 1
343.15 K, 2000 kPa	825.3 ± 1
343.15 K, 2780 kPa	826.2 ± 1.1
343.15 K, 3000 kPa	826.5 ± 1.1
343.15 K, 5000 kPa	828.8 ± 1.2
343.15 K, 10000 kPa	834.4 ± 1.4
343.15 K, 15000 kPa	839.6 ± 1.6
343.15 K, 20000 kPa	844.5 ± 1.8
343.15 K, 25000 kPa	849.2 ± 2
343.15 K, 30000 kPa	853.7 ± 2.2
343.15 K, 35000 kPa	858 ± 2.3
348.15 K, 100 kPa	817.7 ± 1
348.15 K, 1000 kPa	818.7 ± 1
348.15 K, 2000 kPa	820 ± 1.1
348.15 K, 2780 kPa	821 ± 1.1
348.15 K, 3000 kPa	821.3 ± 1.1
348.15 K, 5000 kPa	823.7 ± 1.2
348.15 K, 10000 kPa	829.4 ± 1.4
348.15 K, 15000 kPa	834.8 ± 1.7
348.15 K, 20000 kPa	839.9 ± 1.9
348.15 K, 25000 kPa	844.7 ± 2.1
348.15 K, 30000 kPa	849.3 ± 2.2
348.15 K, 35000 kPa	853.6 ± 2.4
353.15 K, 100 kPa	812.2 ± 1
353.15 K, 1000 kPa	813.3 ± 1
353.15 K, 2000 kPa	814.6 ± 1.1
353.15 K, 2780 kPa	815.6 ± 1.1
353.15 K, 3000 kPa	815.9 ± 1.1
353.15 K, 5000 kPa	818.4 ± 1.2
353.15 K, 10000 kPa	824.3 ± 1.5
353.15 K, 15000 kPa	829.9 ± 1.7
353.15 K, 20000 kPa	835.1 ± 1.9
353.15 K, 25000 kPa	840 ± 2.1
353.15 K, 30000 kPa	844.7 ± 2.3
353.15 K, 35000 kPa	849.1 ± 2.5
363.15 K, 100 kPa	801.2 ± 1
363.15 K, 1000 kPa	802.5 ± 1.1
363.15 K, 2000 kPa	803.9 ± 1.1
363.15 K, 2780 kPa	805 ± 1.2
363.15 K, 3000 kPa	805.5 ± 1.2
363.15 K, 5000 kPa	808.1 ± 1.3
363.15 K, 10000 kPa	814.6 ± 1.5
363.15 K, 15000 kPa	820.5 ± 1.8
363.15 K, 20000 kPa	826 ± 2
363.15 K, 25000 kPa	831.2 ± 2.2
363.15 K, 30000 kPa	836 ± 2.4
363.15 K, 35000 kPa	840.8 ± 2.6
373.15 K, 100 kPa	790.7 ± 1
373.15 K, 1000 kPa	792 ± 1.1
373.15 K, 2000 kPa	793.5 ± 1.2
373.15 K, 2780 kPa	794.7 ± 1.2
373.15 K, 3000 kPa	795 ± 1.2
373.15 K, 5000 kPa	797.9 ± 1.3
373.15 K, 10000 kPa	804.8 ± 1.6
373.15 K, 15000 kPa	810.9 ± 1.8
373.15 K, 20000 kPa	816.7 ± 2.1
373.15 K, 25000 kPa	822.2 ± 2.3
373.15 K, 30000 kPa	827.3 ± 2.5
373.15 K, 35000 kPa	832.3 ± 2.7
383.15 K, 100 kPa	779.9 ± 1.1
383.15 K, 1000 kPa	781.3 ± 1.1
383.15 K, 2000 kPa	783 ± 1.2
383.15 K, 2780 kPa	784.2 ± 1.2
383.15 K, 3000 kPa	784.5 ± 1.2
383.15 K, 5000 kPa	787.6 ± 1.4
383.15 K, 10000 kPa	795 ± 1.6
383.15 K, 15000 kPa	801.5 ± 1.9
383.15 K, 20000 kPa	807.6 ± 2.1
383.15 K, 25000 kPa	813.4 ± 2.4
383.15 K, 30000 kPa	818.9 ± 2.6
383.15 K, 35000 kPa	824 ± 2.8
393.15 K, 100 kPa	769 ± 1.1
393.15 K, 1000 kPa	770.5 ± 1.2
393.15 K, 2000 kPa	772.3 ± 1.2
393.15 K, 2780 kPa	773.6 ± 1.3
393.15 K, 3000 kPa	774.1 ± 1.3
393.15 K, 5000 kPa	777.4 ± 1.4
393.15 K, 10000 kPa	785.1 ± 1.7
393.15 K, 15000 kPa	791.6 ± 2
393.15 K, 20000 kPa	797.7 ± 2.2
393.15 K, 25000 kPa	803.5 ± 2.5
393.15 K, 30000 kPa	809 ± 2.7
393.15 K, 35000 kPa	814 ± 2.9
